According to US20080140138A1, “Inhibition of inflammatory cytokine production by stimulation of brain muscarinic receptors” (priority 2002, published 2008):

Legend:
[1] = system: alpha 1 adrenergic; test: NovaScreen receptor binding panel, CNI-1493 at 10 μM; conditions: average of duplicate tubes
Protocol: (§1) Method of determining CNI-1493 receptor binding. CNI-1493 was tested at a single concentration (10 μM) in a panel of receptor binding assays by NovaScreen Biosciences Corporation (Hanover, Md.). Values were expressed as the percent inhibition of specific binding, and represented the average of duplicate tubes. Method of stereotactic intracerebroventricular injections. A rat model of intracerebroventricular (i.c.v.) injections was established in order to be able to directly deliver pharmacological agents into the brain of rats. This was necessary in order to separate drug effects on peripheral inflammation that occurred through central versus peripheral mechanisms. Lewis rats were anaesthetized with urethane (1 g/kg, i.p.) and xylazine (15 mg/rat, i.m. (intramuscular)). Rats were then placed in a stereotactic head frame (Stoelting, Wood Dale, Ill., USA). The incisor bar was adjusted until the plane defined by the lambda and bregma was parallel to the base plate. For i.c.v. injections the needle of a Hamilton syringe (25 μl) was positioned stereotactically above the lateral ventricle (0.2 mm and 1.5 mm posterior to bregma, 3.2 mm below the dura.) Solutions of the drugs tested were prepared in sterile endotoxin-free water, at the specified concentrations, and a 10-μl injection/rat was administered over 2 min, 1 h prior to either carrageenan injection, or to LPS.

[2] = target: Muscarinic, M1 (Human recombinant) (Homo sapiens, UniProt P11229); test: NovaScreen muscarinic receptor binding panel; conditions: 10 μM, average of duplicate tubes
Sequence of Muscarinic, M1 (Human recombinant) (P11229 whole entry): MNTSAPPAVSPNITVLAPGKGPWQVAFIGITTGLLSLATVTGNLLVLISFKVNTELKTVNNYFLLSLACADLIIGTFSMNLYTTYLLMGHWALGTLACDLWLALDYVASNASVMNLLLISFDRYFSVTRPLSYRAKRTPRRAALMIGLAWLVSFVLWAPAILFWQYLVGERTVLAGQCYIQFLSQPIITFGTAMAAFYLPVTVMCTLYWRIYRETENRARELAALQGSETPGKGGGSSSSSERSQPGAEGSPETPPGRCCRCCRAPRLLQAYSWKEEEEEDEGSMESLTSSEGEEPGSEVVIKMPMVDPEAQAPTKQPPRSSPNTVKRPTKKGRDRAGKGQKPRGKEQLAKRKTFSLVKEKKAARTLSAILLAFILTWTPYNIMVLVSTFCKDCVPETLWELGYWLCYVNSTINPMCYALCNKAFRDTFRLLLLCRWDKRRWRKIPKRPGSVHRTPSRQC
Protocol: (§2) Method of determining muscarinic receptor subtype. CNI-1493 was tested at a single concentration (10 μM) in a panel of muscarinic receptor binding assays by NovaScreen Biosciences Corporation (Hanover, Md.). Values were expressed as the percent inhibition of specific binding, and represented the average of duplicate tubes.

[3] = system: Muscarinic, M1; test: NovaScreen muscarinic receptor binding panel; conditions: 10 μM, average of duplicate tubes
Protocol: as §2

[4] = target: Muscarinic, M2 (Human recombinant) (Homo sapiens, UniProt P08172); test: NovaScreen muscarinic receptor binding panel; conditions: 10 μM, average of duplicate tubes
Sequence of Muscarinic, M2 (Human recombinant) (P08172 whole entry): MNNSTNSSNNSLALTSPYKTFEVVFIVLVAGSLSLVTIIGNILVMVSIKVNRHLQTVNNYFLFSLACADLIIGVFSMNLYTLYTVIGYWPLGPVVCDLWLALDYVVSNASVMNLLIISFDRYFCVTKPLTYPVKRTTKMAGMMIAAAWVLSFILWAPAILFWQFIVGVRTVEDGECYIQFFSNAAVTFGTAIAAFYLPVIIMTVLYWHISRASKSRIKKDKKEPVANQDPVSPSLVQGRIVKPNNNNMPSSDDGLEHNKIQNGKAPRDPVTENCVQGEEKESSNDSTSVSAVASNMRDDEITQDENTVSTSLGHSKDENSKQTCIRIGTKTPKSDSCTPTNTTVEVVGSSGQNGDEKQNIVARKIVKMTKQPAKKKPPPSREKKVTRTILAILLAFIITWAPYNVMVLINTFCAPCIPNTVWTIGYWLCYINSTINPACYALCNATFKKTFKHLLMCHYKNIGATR
Protocol: as §2

[5] = system: Muscarinic, M2; test: NovaScreen muscarinic receptor binding panel; conditions: 10 μM, average of duplicate tubes
Protocol: as §2

[6] = target: T1, Muscarinic, M3 (Human recombinant) (Homo sapiens, UniProt P20309); test: NovaScreen muscarinic receptor binding panel; conditions: 10 μM, average of duplicate tubes
T1 construct: NovaScreen Biosciences Corporation (contract laboratory that ran the assay)
T1 sequence (P20309 whole entry): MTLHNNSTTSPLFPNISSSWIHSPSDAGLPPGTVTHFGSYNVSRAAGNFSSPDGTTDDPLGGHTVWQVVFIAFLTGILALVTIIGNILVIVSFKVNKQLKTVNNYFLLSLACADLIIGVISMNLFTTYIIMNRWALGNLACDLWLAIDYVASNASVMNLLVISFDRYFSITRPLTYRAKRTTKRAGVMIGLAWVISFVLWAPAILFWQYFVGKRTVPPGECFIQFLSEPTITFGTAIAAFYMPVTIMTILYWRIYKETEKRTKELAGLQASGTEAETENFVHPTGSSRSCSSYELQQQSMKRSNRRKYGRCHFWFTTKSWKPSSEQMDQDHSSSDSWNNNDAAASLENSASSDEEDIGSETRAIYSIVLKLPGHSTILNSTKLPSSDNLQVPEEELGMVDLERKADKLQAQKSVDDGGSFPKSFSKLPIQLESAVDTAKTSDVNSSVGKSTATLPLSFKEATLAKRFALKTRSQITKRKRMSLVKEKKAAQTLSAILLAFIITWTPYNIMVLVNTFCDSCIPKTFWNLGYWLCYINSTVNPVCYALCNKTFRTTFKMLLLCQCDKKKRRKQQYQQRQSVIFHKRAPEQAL
Protocol: as §2

[7] = system: Muscarinic, M3; test: NovaScreen muscarinic receptor binding panel; conditions: 10 μM, average of duplicate tubes
Protocol: as §2

[8] = target: T2, Muscarinic, M4 (Human recombinant) (Homo sapiens, UniProt P08173); test: NovaScreen muscarinic receptor binding panel; conditions: 10 μM, average of duplicate tubes
T2 construct: NovaScreen Biosciences Corporation (contract laboratory that ran the assay)
T2 sequence (P08173 whole entry): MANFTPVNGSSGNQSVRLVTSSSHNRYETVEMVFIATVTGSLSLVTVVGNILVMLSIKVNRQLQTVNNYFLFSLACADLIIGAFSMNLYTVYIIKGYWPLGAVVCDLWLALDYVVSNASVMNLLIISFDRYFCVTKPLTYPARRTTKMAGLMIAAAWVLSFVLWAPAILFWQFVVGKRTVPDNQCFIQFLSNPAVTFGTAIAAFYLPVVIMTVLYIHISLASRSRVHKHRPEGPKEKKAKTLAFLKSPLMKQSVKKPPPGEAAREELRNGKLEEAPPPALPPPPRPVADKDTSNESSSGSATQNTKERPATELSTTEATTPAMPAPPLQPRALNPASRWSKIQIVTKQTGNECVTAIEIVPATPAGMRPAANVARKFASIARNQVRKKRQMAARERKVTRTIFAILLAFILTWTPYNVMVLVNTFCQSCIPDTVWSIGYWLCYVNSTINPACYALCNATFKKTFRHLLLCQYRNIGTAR
Protocol: as §2

[9] = target: T3, Muscarinic, M5 (Human recombinant) (Homo sapiens, UniProt P08912); test: NovaScreen muscarinic receptor binding panel; conditions: 10 μM, average of duplicate tubes
T3 construct: NovaScreen Biosciences Corporation (contract laboratory that ran the assay)
T3 sequence (P08912 whole entry): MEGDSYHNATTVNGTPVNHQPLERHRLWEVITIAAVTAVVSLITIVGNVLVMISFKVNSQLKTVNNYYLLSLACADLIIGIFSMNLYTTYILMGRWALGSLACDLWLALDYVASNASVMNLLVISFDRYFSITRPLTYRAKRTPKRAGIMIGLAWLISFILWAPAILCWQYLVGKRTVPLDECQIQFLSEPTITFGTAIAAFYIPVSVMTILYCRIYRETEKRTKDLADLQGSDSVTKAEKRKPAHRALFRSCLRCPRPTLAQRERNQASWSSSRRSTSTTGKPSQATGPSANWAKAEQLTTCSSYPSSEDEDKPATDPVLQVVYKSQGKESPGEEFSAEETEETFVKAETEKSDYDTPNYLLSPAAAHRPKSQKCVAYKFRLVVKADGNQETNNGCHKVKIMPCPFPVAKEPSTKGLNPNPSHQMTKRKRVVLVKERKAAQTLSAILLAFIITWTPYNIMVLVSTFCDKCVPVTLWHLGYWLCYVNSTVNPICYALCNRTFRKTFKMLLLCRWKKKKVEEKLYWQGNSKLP
Protocol: as §2

[10] = system: LPS-induced serum TNF; test: LPS-induced serum TNF after i.c.v. drug injection, L929 bioactivity assay; assay type: in vivo, Lewis rats; conditions: 5 μg/rat i.c.v., 1 h before LPS 15 mg/kg i.v.; blood 2 h post LPS
Protocol: Method of stereotactic intracerebroventricular injections. […] Lewis rats were anaesthetized with urethane (1 g/kg, i.p.) and xylazine (15 mg/rat, i.m. (intramuscular)). Rats were then placed in a stereotactic head frame (Stoelting, Wood Dale, Ill., USA). The incisor bar was adjusted until the plane defined by the lambda and bregma was parallel to the base plate. For i.c.v. injections the needle of a Hamilton syringe (25 μl) was positioned stereotactically above the lateral ventricle (0.2 mm and 1.5 mm posterior to bregma, 3.2 mm below the dura.) Solutions of the drugs tested were prepared in sterile endotoxin-free water, at the specified concentrations, and a 10-μl injection/rat was administered over 2 min, 1 h prior to either carrageenan injection, or to LPS.
In one set of experiments, rats were injected by i.c.v. means with either saline (n=1), CNI-1493 (5 μg/rat, n=3), CNI-1493 plus atropine (5 μg/rat each), or atropine (5 μg/rat). LPS (15 mg/kg, i.v.) was given 1 h later. Blood was collected 2 h post LPS administration. Serum TNF was determined by the L929 assay.

[11] = system: carrageenan-induced hindpaw edema; test: Carrageenan-induced hindpaw edema; assay type: in vivo, Lewis rats; conditions: CNI-1493 5 μg/rat i.c.v., 1 h before carrageenan; edema 3 h post carrageenan
Protocol: as §1
The tested drugs, in either the carrageenan and/or LPS experiments, were: saline control; fluoxetine hydrochloride, (also known as Prozak) (0.01 mg/100 g); muscarine (50 μg/rat, 5 μg/rat, 0.5 μg/rat, 0.05 μg/rat, 0.005 μg/rat); 4-(N-[3-chlorophenyl]carbamoyloxy)-2-butynyltrimethylammonium chloride (also known as McN-A-343) (5 μg/rat); Muscarinic Toxin-3, (also known as MT-3) from Dendroaspis angusticeps snake venom (0.37 μg/rat); nicotine (10 μg/rat); CNI-1493 (1 μg/kg, 50 μg/rat); atropine (1 μg/kg, 5 μg/rat); CNI-1493 plus atropine (1 μg/kg of each of the drugs; 50 μg/rat, 5 μg/rat respectively); naloxone hydrochloride (2 μg/rat), CNI-1493 plus naloxone (50 μg/rat+5 μg/rat respectively); and morphine (20 μg/rat).
Method of carrageenan-induced hindpaw edema. Paw edema was induced in anaesthetized rats by injection of 1% solution of 1-carrageenan (100 μl) into the plantar surface of the left hindpaw. The right hindpaw was injected with the same volume of saline alone (as control). The thickness of the carrageenan-treated and saline-treated hindpaw was measured using a caliper at 3 h post carrageenan, and the difference between paw thickness calculated as an index of inflammation (paw swelling). Method of LPS injections and TNF determination. LPS (15 mg/kg, i.v.) was injected in the tail vein 1 h after drug injection. Blood was obtained 2 h post LPS injection by paraorbital bleeding. Serum TNF concentrations were determined by an L929 bioactivity assay. Method of assessing TNF by the L929 bioactivity assay. L929 cells were suspended in Dulbecco's minimal Eagle's medium (DMEM; GibcoBRL) supplemented with fetal bovine serum (10%; Hyclone) and penicillin/streptomycin (0.5%; Sigma Chemical Co.), and plated at 2×10^4 cells per well in 96-well flat-bottomed microtiter plates. After 24 h, media were respirated and replaced with medium containing cycloheximide (10 μg/ml; Sigma Chemical Co.) and the samples to be assayed/TNF standards. Plates were incubated overnight, at which time cell viability as a function of TNF concentration was assessed by the MTT assay. Absorbance values were converted to units per milliliter by comparison with a standard curve for rat TNF.
In a third set of experiments, rats were injected by i.c.v. means with either saline (n=4), CNI-1493 (5 μg/rat, n=3), CNI-1493 plus atropine (5 μg/rat each), or atropine (5 μg/rat). Carrageenan was given to the animals 1 h later, and paw edema was determined 3 h post carrageenan. […]

[12] = system: LPS-induced TNF release; test: Conditioning (CNI-1493 with bell ringing), LPS-induced TNF release, L929 assay; assay type: in vivo, Mice; conditions: CNI-1493 2.5 mg/kg i.p. with bell ringing vs. saline with bell ringing (Group 2 vs. Group 4; p=0.22); LPS 5 mg/kg i.p.
Protocol: Mice were grouped into four groups (n=4 animals/group). The conditioning training for Groups 2-4 consisted of morning and afternoon sessions. Mice in group 2 were together taken to a room, where each mouse was injected with CNI-1493 (2.5 mg/kg, i.p.). Simultaneously with the injection, each mouse was subjected to 45 seconds of bell ringing. Group 4 mice, similar to Group 2 mice, were subjected to control conditioning, whereby mice were injected with saline, instead of CNI-1493. Group 3 mice, like Group 2 mice, were subjected to saline injections but not bell ringing. This protocol was performed over a 10 day period, on days 1-4 and 8-10. On day 11, Group 1 mice were injected with CNI-1493 (2.5 mg/kg, i.p.). Also on day 11, 30 min after the Group 1 mice injections were performed, animals in all groups were injected with LPS (5 mg/kg, i.p.). After 2 hours, the mice were euthanized via CO2 inhalation, and blood was withdrawn. Serum TNF was determined by the L929 assay.

CC(=NNC(=N)N)c1cc(NC(=O)CCCCCCCCC(=O)Nc2cc(C(C)=NNC(=N)N)cc(C(C)=NNC(=N)N)c2)cc(C(C)=NNC(=N)N)c1.Cl.Cl.Cl.Cl [CNI-1493, N,N′-bis(3,5-diacetylphenyl) decanediamide tetrakis (amidinohydrazone) tetrahydrochloride]
percent inhibition of specific binding [1]: 89.7% | Percent inhibition [2]: 72% | Percent inhibition [3]: 83% | Percent inhibition [4]: 58% | Percent inhibition [5]: 85% | Percent inhibition [6]: 40% | Percent inhibition [7]: 9% | Percent inhibition [8]: 57% | Percent inhibition [9]: 43% | inhibition of LPS-induced serum TNF levels [10]: more than 80% | inhibition of carrageenan-induced paw edema [11]: significantly inhibits | reduction of mean LPS-induced TNF release by conditioning [12]: about 60%
